Source: ChEMBL document CHEMBL1137502, “Design and evaluation of analogues of the bacterial cell-wall peptidoglycan motif L-Lys-D-Ala-D-Ala for use in a vancomycin biosensor” (2007)

System: Staphylococcus aureus
Assay: Antibacterial activity against Staphylococcus aureus ATCC 25923 assessed as reduction of bacterial count by broth microdilution method
Type: functional

For `CN[C@H](CC(C)C)C(=O)N[C@H]1C(=O)N[C@@H](CC(N)=O)C(=O)N[C@H]2C(=O)N[C@H]3C(=O)N[C@H](C(=O)N[C@H](C(=O)O)c4cc(O)cc(O)c4-c4cc3ccc4O)[C@H](O)c3ccc(c(Cl)c3)Oc3cc2cc(c3O[C@@H]2O[C@H](CO)[C@@H](O)[C@H](O)[C@H]2O[C@H]2C[C@](C)(N)[C@H](O)[C@H](C)O2)Oc2ccc(cc2Cl)[C@H]1O` [VANCOMYCIN], the Log10 cfu was 1.
